Assay results reported in publication PMC5297809, “Design, Synthesis and Antifungal Activity Evaluation of New Thiazolin-4-ones as Potential Lanosterol 14α-Demethylase Inhibitors” (International Journal of Molecular Sciences, 2017).
In brackets after ≈: the same amount, converted by molar mass.

Experiments:
[1] = system: Candida albicans ATCC 18804; assay: broth microdilution MIC/MFC; assay type: cell-based; conditions: for MFC: ATCC18804, C. albicans ATCC 18804, read-out: MFC; for MIC: ATCC18804, C. albicans ATCC 18804, read-out: MIC
[2] = system: Candida parapsilosis ATCC 22019; assay: broth microdilution MIC/MFC; assay type: cell-based; conditions: Lodderomyces parapsilosis, ATCC22019, C. parapsilosis ATCC 22019; for MFC: read-out: MFC; for MIC: read-out: MIC
[3] = system: Candida albicans ATCC 10231; assay: cup-plate agar diffusion method, inhibition zone diameters; assay type: cell-based; conditions: ATCC10231, C. albicans ATCC 10231, 1 mg/mL in DMSO, 20 µg/well, mean of three ± SD, read-out: inhibition zone diameters
[4] = lipophilicity by RP-TLC with PCA; assay type: physicochemical; parameters: key to P1 / P2: PCA scores of compounds computed from Rf data; conditions: for RM0: RP-TLC C18, water-i-propanol 45-65%, intercept, RM extrapolated to 0% organic modifier (lipophilicity); for b: RP-TLC regression slope (specific hydrophobic surface area); for P1: score of first principal component of Rf data, low P1 = highly lipophilic; for P2: score of second principal component of Rf data
Protocol: The lipophilic character of twenty thiazolin-4-one derivatives was assessed with the help of the principal component analysis (PCA) based on the reversed-phase thin-layer chromatography (RP-TLC) data.
The chromatographic behavior of the test compounds was studied on C18 silicagel bonded 60 RP-180F254S TLC (20 × 20 cm) plates, purchased from Merck (Darmstadt, Germany). The test compounds’ solutions (1 mg/mL) were prepared by dissolving the samples in DMSO (Merck, Darmstadt, Germany). The plates were manually spotted with 3 µL aliquots of each solution at 10 mm from the base and 5 mm from the edge of the plate, leaving a 10 mm distance between successive spots, and developed by the ascending technique, without preconditioning. Chromatography was performed in a normal developing chamber at room temperature (~24 °C), the developing distance being of 9 cm. The solvent system used as mobile phase consisted of a water-i-propanol mixture, with a varying content of organic modifier (i-propanol—concentration ranged between 45% and 65% (v/v), with 5% vol. increments). Before the development, the chamber was saturated with the mobile phase for 15 min. After being developed, the dried plates were visually inspected under the UV light (λ = 254 nm), each spot was clearly marked and its distance was manually measured in order to calculate the Rf values. The spots of the compounds 3f, 10 and 11 were not visible in UV light, thus their Rf values could not be calculated, therefore they were excluded from this assay.
Based on the Rf values, one of the most common lipophilic estimator, meaning the isocratic retention factor RM was calculated using the Bate-Smith and Westall equations [40].
RP-TLC provides retention data in the form of Rf and the corresponding RM values (Equation (2)) that can be used to derive chromatographic descriptors for estimating lipophilicity: RM0, b and PCA. The most popular lipophilicity descriptor estimated by this method is RM and it is derived from the retention factor (Rf) according to the following formula: RM = log[(1/Rf) − 1] (2) where Rf is calculated on the basis of migration distance of a compound and the solvent front.
As RM value (related to the molecular lipophilicity) depends linearly on the concentration of the organic modifier in the mobile phase, the value is extrapolated to pure water as mobile phase. In order to increase the accuracy of the lipophilicity determination, the RM values extrapolated to zero organic modifier concentration (RM0) have been calculated from the linear correlation between the RM values and the concentration of the organic component of the mobile phase: RM = RM0 + bc (3) where RM0 is the lipophilicity estimation parameter, RM is the retention of the solute, b is the slope, and c is the concentration of the mobile phase organic modifier (i-propanol).
The intercept (RM0) in Equation (3) represents the extrapolated RM values at 0% organic modifier.
PCA was performed on the obtained retention parameters with the help of XL-STAT extension. […] PCA gave the coordinates (scores) of the studied compounds and also the loadings of the variables (solvents) on the principal components.

[5] = system: Candida albicans ATCC 10231; assay: broth microdilution MIC/MFC; assay type: cell-based; conditions: for MFC: ATCC10231, C. albicans ATCC 10231, read-out: MFC; for MIC: ATCC10231, C. albicans ATCC 10231, read-out: MIC
Candida krusei ATCC 6258 = assay: broth microdilution MIC/MFC; assay type: cell-based; conditions: Pichia kudriavzevii, ATCC6258, C. krusei ATCC 6258; for MFC: read-out: MFC; for MIC: read-out: MIC
four strains of Candida = assay: broth microdilution MIC/MFC, summary over the four strains; assay type: cell-based; conditions: for MFC / MIC: summary over two C. albicans, one C. krusei and one C. parapsilosis strain

Compound	MFC [1]	MIC [1]	MFC [2]	MIC [2]	zone of inhibition at 1000 µg/mL [3]	RM0 [4]	b [4]	P1 [4]	P2 [4]	MFC [5]	MIC [5]	melting point	MFC (Candida krusei ATCC 6258)	MIC (Candida krusei ATCC 6258)	fold more active than fluconazole (four strains of Candida; anti-Candida activity)	MFC (four strains of Candida)	MIC (four strains of Candida)
O=C1N=C(Nc2cccc3ccccc23)SC1=Cc1ccc([N+](=O)[O-])cc1 [Compound 9c, 2-(Naphthalen-1-ylamino)-5-(4-nitrobenzylidene)thiazol-4(5H)-one]	3.9 µg/mL (≈ 10.4 µM)	1.95 µg/mL (≈ 5.19 µM)	0.06 µg/mL (≈ 0.16 µM)	0.03 µg/mL (≈ 0.0799 µM)	20 ± 0.5 mm	2.7789	−4.1555	−2.722	0.228	3.9 µg/mL (≈ 10.4 µM)	1.95 µg/mL (≈ 5.19 µM)	152 °C	1.95 µg/mL (≈ 5.19 µM)	0.97 µg/mL (≈ 2.58 µM)			
O=C1N=C(Nc2cccc3ccccc23)SC1=Cc1csc(-c2ccccc2)n1 [Compound 9d, 2-(Naphthalen-1-ylamino)-5-((2-phenylthiazol-4-yl)methylene)thiazol-4(5H)-one]	3.9 µg/mL (≈ 9.43 µM)	3.9 µg/mL (≈ 9.43 µM)	0.24 µg/mL (≈ 0.58 µM)	0.12 µg/mL (≈ 0.29 µM)	20 ± 1 mm	3.287	−4.6935	−3.746	0.618	15.6 µg/mL (≈ 37.8 µM)	7.81 µg/mL (≈ 18.9 µM)	312 °C	0.48 µg/mL (≈ 1.16 µM)	0.24 µg/mL (≈ 0.58 µM)			
O=C1N=C(Nc2cccc3ccccc23)SC1=Cc1coc2ccc(Cl)cc2c1=O [Compound 9e, 5-((6-Chloro-4-oxo-4H-chromen-3-yl)methylene)-2-(naphthalen-1-ylamino)thiazol-4(5H)-one]	3.9 µg/mL (≈ 9.01 µM)	1.95 µg/mL (≈ 4.5 µM)	3.9 µg/mL (≈ 9.01 µM)	1.95 µg/mL (≈ 4.5 µM)	22 ± 0.5 mm	2.3983	−3.319	−3.292	0.708	15.6 µg/mL (≈ 36.1 µM)	7.81 µg/mL (≈ 18 µM)	266 to 268 °C	3.9 µg/mL (≈ 9.01 µM)	1.95 µg/mL (≈ 4.5 µM)			
CNC1=NC(=O)CS1 [Compound 10, 2-(methylamino)thiazol-4(5H)-one]	0.03 µg/mL (≈ 0.23 µM)	0.015 µg/mL (≈ 0.115 µM)	0.015 µg/mL (≈ 0.115 µM)	0.015 µg/mL (≈ 0.115 µM)	22 ± 1 mm					0.03 µg/mL (≈ 0.23 µM)	0.015 µg/mL (≈ 0.115 µM)		0.015 µg/mL (≈ 0.115 µM)	0.015 µg/mL (≈ 0.115 µM)	over 500 fold	0.015 µg/mL (≈ 0.115 µM)	0.015 µg/mL (≈ 0.115 µM)
OC(Cn1cncn1)(Cn1cncn1)c1ccc(F)cc1F [Fluconazole, reference compound]	31.2 µg/mL (≈ 102 µM)	15.6 µg/mL (≈ 51 µM)	15.6 µg/mL (≈ 51 µM)	7.81 µg/mL (≈ 25.5 µM)	22 ± 0.5 mm					31.2 µg/mL (≈ 102 µM)	15.6 µg/mL (≈ 51 µM)		31.2 µg/mL (≈ 102 µM)	15.6 µg/mL (≈ 51 µM)		15.6 to 31.2 µg/mL (≈ 51 to 102 µM)	7.81 to 15.6 µg/mL (≈ 25.5 to 51 µM)
CC(=O)N1CCN(c2ccc(OCC3COC(Cn4ccnc4)(c4ccc(Cl)cc4Cl)O3)cc2)CC1 (stereo not drawn) [Ketoconazole, reference compound]	15.6 µg/mL (≈ 29.4 µM)	7.81 µg/mL (≈ 14.7 µM)	7.81 µg/mL (≈ 14.7 µM)	3.9 µg/mL (≈ 7.34 µM)						15.6 µg/mL (≈ 29.4 µM)	7.81 µg/mL (≈ 14.7 µM)		15.6 µg/mL (≈ 29.4 µM)	7.81 µg/mL (≈ 14.7 µM)		7.81 to 15.6 µg/mL (≈ 14.7 to 29.4 µM)	3.9 to 7.81 µg/mL (≈ 7.34 to 14.7 µM)
